Test results taken from PubChem BioAssay (NCI).
Values joined by “and” are separate entries in the source; they are usually repeats but may differ in a detail not shown here. Equal values may be shown once.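 Dose response: 5 concentrations. Exposure: 48 h. Format: 96-well plates. Endpoint: linear interpolation; highest concentration if not reached. The concentration for 50% growth inhibition is given as GI50. TGI: total growth inhibition.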

What was measured:
Assay in all cases: DTP human tumour cell line panel, 48 h
[1] = tested on: HOP-62 NSCLC
[2] = tested on: UACC-62 melanoma
[3] = tested on: TK-10 renal
[4] = tested on: OVCAR-5 ovarian
[5] = tested on: SW-620 colon
[6] = tested on: SF-268 CNS
[7] = tested on: HOP-92 NSCLC
[8] = tested on: EKVX NSCLC
[9] = tested on: SNB-19 CNS

O=S(=O)(NCn1ccc2ccccc21)c1ccccc1
TGI [1]: > 100 µM | TGI [2]: > 100 µM | TGI [3]: > 100 µM | TGI [4]: > 100 µM | TGI [5]: > 100 µM | TGI [6]: > 100 µM | TGI [7]: > 100 µM | TGI [8]: > 100 µM | TGI [9]: > 31.6 µM

O=C(O)CCNCCCCNCCC(=O)O
TGI [1]: > 100 µM | TGI [2]: > 100 µM | TGI [3]: > 100 µM | TGI [4]: > 100 µM | TGI [5]: > 100 µM | TGI [6]: > 100 µM | TGI [7]: > 100 µM | TGI [8]: > 100 µM | TGI [9]: > 100 µM

C=CCO/N=C(\OC(=O)c1ccc([N+](=O)[O-])cc1)c1ccccc1
TGI [1]: > 100 µM | TGI [2]: > 100 µM | TGI [3]: > 100 µM | TGI [4]: > 100 µM | TGI [5]: > 100 µM | TGI [6]: > 100 µM | TGI [7]: > 100 µM | TGI [8]: > 100 µM | TGI [9]: > 100 µM

C=CCC1=C(C)C[C@@H]2CCC(=O)C=C12
TGI [1]: > 100 µM | TGI [2]: > 100 µM | TGI [3]: > 100 µM | TGI [4]: > 100 µM | TGI [5]: > 100 µM | TGI [6]: > 100 µM | TGI [7]: > 100 µM | TGI [8]: > 100 µM | TGI [9]: > 100 µM

CC(C)=CCC(OC(=O)C=C(C)C)C1=CC(=O)c2c(O)ccc(O)c2C1=O (stereo unspecified)
TGI [1]: 25.7 µM and 24.4 µM | GI50 [2]: 1.67 µM | TGI [2]: 3.1 µM and 2.4 µM | GI50 [3]: 0.738 µM | TGI [3]: 2.41 µM | GI50 [4]: 5.77 µM | TGI [4]: 25.6 µM and 8.83 µM | GI50 [5]: 0.327 µM | TGI [5]: 1.27 µM and 0.867 µM | GI50 [6]: 3.35 µM | TGI [6]: 9.83 µM and 4.06 µM | GI50 [7]: 0.365 µM | TGI [7]: 1.38 µM and 1.29 µM | GI50 [8]: 2.28 µM | TGI [8]: 6.2 µM and 2.2 µM | GI50 [9]: 21.9 µM | TGI [9]: 40.2 µM and 15.3 µM

CC1CCSC(N(C(=O)N(C)c2ccccc2)c2ccccc2)=N1 (stereo unspecified)
TGI [1]: > 100 µM | TGI [2]: > 100 µM | TGI [3]: > 100 µM | TGI [4]: > 100 µM | TGI [5]: > 100 µM | TGI [6]: > 100 µM | TGI [8]: > 100 µM | TGI [9]: > 100 µM

CC(C)CCCC(C)[C@H]1CCC2[C@@H]3CCC4Nc5c(cnn5-c5ccccc5)C[C@]4(C)C3CC[C@@]21C (stereo partly specified)
TGI [1]: 45.7 µM | TGI [2]: 40.4 µM | TGI [3]: > 100 µM | TGI [4]: > 100 µM | TGI [5]: > 100 µM | TGI [6]: > 100 µM | TGI [8]: 79.8 µM | TGI [9]: 63.1 µM

COc1ccc(CCn2c(=O)c3ccccc3n(C)c2=O)cc1
TGI [1]: > 100 µM | TGI [2]: > 100 µM | TGI [3]: > 100 µM | TGI [4]: > 100 µM | TGI [5]: > 100 µM | TGI [6]: > 100 µM | TGI [8]: > 100 µM | TGI [9]: > 100 µM

NNC(=O)C(=O)N/N=C1\CCC(=O)CC1C(=O)CCC(=O)Nc1ccc(Cl)cc1 (stereo unspecified)
TGI [2]: > 100 µM | TGI [3]: > 100 µM | TGI [4]: > 100 µM | TGI [5]: > 100 µM | TGI [6]: > 100 µM | TGI [8]: > 100 µM | TGI [9]: > 100 µM

COC(=O)CC(NC(=O)OCc1ccccc1)C(C(=O)OCc1ccccc1)C(C)(OC)OC (stereo unspecified)
TGI [1]: > 100 µM | TGI [2]: 42.3 µM | TGI [3]: > 100 µM | TGI [5]: > 100 µM | TGI [6]: > 100 µM | TGI [8]: > 100 µM | TGI [9]: > 100 µM

COc1ccc(C(=O)C(CC2C(=O)NC(=O)NC2=O)c2ccc(OC)cc2)cc1 (stereo unspecified)
TGI [1]: > 100 µM | TGI [2]: > 100 µM | TGI [3]: > 100 µM | TGI [4]: > 100 µM | TGI [5]: > 100 µM | TGI [6]: > 100 µM | TGI [8]: > 100 µM | TGI [9]: > 100 µM

CC(=O)O[C@]1(C)OC(=O)[C@@H](CC(C)C)N1[N+](=O)[O-]
TGI [1]: > 100 µM | TGI [2]: > 100 µM | TGI [3]: > 100 µM | TGI [4]: > 100 µM | TGI [5]: > 100 µM | TGI [8]: > 100 µM | TGI [9]: > 100 µM

Cc1ccc(S(=O)(=O)c2ccccc2[N+](=O)[O-])cc1
TGI [1]: > 100 µM | TGI [2]: > 100 µM | TGI [3]: > 100 µM | TGI [4]: > 100 µM | TGI [5]: > 100 µM | TGI [8]: > 100 µM

Cc1cc(N(CCC#N)CCC#N)ccc1N=Nc1ccc(Br)cc1
TGI [1]: 20.9 µM | TGI [2]: > 87.2 µM | TGI [3]: 39.8 µM | TGI [4]: > 100 µM | TGI [5]: > 100 µM | TGI [6]: > 100 µM | TGI [8]: > 74.4 µM | TGI [9]: > 57.6 µM

C[Si](C)(C)/C=C\CCO
TGI [2]: > 100 µM | TGI [3]: > 100 µM | TGI [4]: > 100 µM | TGI [5]: > 100 µM | TGI [6]: > 100 µM | TGI [7]: > 100 µM | TGI [8]: > 100 µM | TGI [9]: > 100 µM

c1ccc2c(c1)oc1ccc3nsnc3c12
TGI [2]: > 100 µM | TGI [3]: > 10 µM | TGI [4]: > 100 µM | TGI [5]: > 100 µM | TGI [6]: > 100 µM | TGI [7]: > 100 µM | TGI [8]: > 100 µM | TGI [9]: > 100 µM

CC(=O)[O-].[Mn+3].[O-]c1ccccc1C=NCCNCCN=Cc1ccccc1[O-]
GI50 [2]: > 100 µM | TGI [2]: > 100 µM | GI50 [3]: > 100 µM | TGI [3]: > 100 µM | GI50 [6]: > 100 µM | TGI [6]: > 100 µM | GI50 [9]: > 100 µM | TGI [9]: > 100 µM

C[C@]12CC[C@H](O)CC1=CC[C@@H]1C2CC[C@]2(C)Nc3c(cnn3-c3ccccc3)CC12 (stereo partly specified)
TGI [1]: 8.81 µM | TGI [2]: 17.4 µM | TGI [3]: 83.2 µM | TGI [4]: 17.3 µM | TGI [5]: 8.22 µM | TGI [8]: 57.7 µM

COC(=O)c1c2c(cc3c1CC1(Cc4cc5c(c(C(C)=O)c4C1)CCC5)C3)CCC2 (stereo unspecified)
TGI [1]: > 100 µM | TGI [2]: > 100 µM | TGI [3]: > 100 µM | TGI [4]: > 100 µM | TGI [5]: > 100 µM | TGI [6]: > 100 µM | TGI [7]: > 100 µM | TGI [9]: > 100 µM

CC(C)(C)C(=CS(=O)/N=C/c1ccccc1)C(C)(C)C (stereo unspecified)
TGI [1]: > 100 µM | TGI [3]: > 100 µM | TGI [4]: > 100 µM | TGI [5]: > 100 µM | TGI [6]: > 100 µM | TGI [7]: 51.2 µM | TGI [8]: > 100 µM | TGI [9]: > 100 µM
